Experimental data published in patent publication US20230218577A1, “USE OF HEAT SHOCK PROTEIN INHIBITORS FOR THE TREATMENT OF NEURODEVELOPMENTAL DISORDERS” (The Children's Medical Center Corporation, priority 2020, published 2023).

Columns and labels:
[1] = test system: IGF-IRβ, pS6 in wild-type cortical neurons; experiment: Proteasomal inhibition experiment, Western blot in wild-type cortical neurons; assay type: cell-based, rat; details: 4 μM 17-AGG alone, 24 hrs at DIV20
Procedure: Hippocampi and cortexes from 18-day-old rat embryos (Charles River CD1) were isolated under the microscope and collected in Hank's Balanced Salt Solution containing 10 mM MgCl2, 1 mM kynurenic acid, 10 mM HEPES and penicillin/streptomycin. After 5 min dissociation at 37° C. in 30 U/ml of papain, neurons were mechanically triturated and plated in Neurobasal (NB) medium containing B27 supplement, 2 mM L-glutamine, penicillin/streptomycin and primocin (NB/B27). Biochemical analysis was performed on cortical cultures plated at 1×10^6 cells/well onto six-well plates. Immunofluorescent analysis was performed on hippocampal cultures plated at 20×10^3 cells/well onto 96-well plates. All plates were coated with 20 μg/ml poly-D-lysine (PDL).
Stocks of drugs were freshly diluted in NB media before performing each experiment. The same amount of vehicle was used as vehicle-only control. For dose response curves serial dilutions were freshly made in NB media by a manual multichannel pipette using compound dilution plates.
Protein extracts were lysed in 1×SDS (22 mM Tris-HCl pH 6.8, 4% Glycerol, 0.8% SDS, 1.6% β-mercaptoethanol, bromphenol blue) sample buffer, heated to 95° C. for 5 min and stored frozen. Before being subjected to discontinuous gel electrophoresis, equal amounts of all protein lysates were verified by Coomassie gel staining. For immunoblotting, equal amounts of protein lysates were subjected to SDS-PAGE, transferred to Immobilon-P Millipore and incubated in LI-COR blocking solution at RT for 2 hrs. Primary and secondary antibodies were diluted in LI-COR blocking solution to the appropriate concentrations. LI-COR IRDye secondary antibodies were used. All images were acquired using the LI-COR Odyssey Classic imager and associated Image Studio Lite analysis software (version 5.2.5). Quantification of protein expression was performed by densitometry scans of immunoblots using LI-COR Odyssey imaging system.

[2] = test system: cilia (ACIII) in ctrl-sh hippocampal neurons; experiment: cilia^HCA in ctrl-sh neurons; assay type: cell-based, rat; details: four-day dose curve between DIV9-13
Text: To investigate how mTORC1 dysregulation due to neuronal TSC loss affected ciliation, High Content image-based Assays (HCAs) were developed for unbiased quantification of cilia and mTORC1 activity (hereafter cilia^HCA and mTORC1^HCA) in primary neurons. As an in vitro model of TSC, rat hippocampal neurons transduced with lentiviral vectors (LV) expressing a short hairpin RNA (shRNA) were used directed against either the Tsc2 (Tsc2-sh) or the luciferase gene as a control (ctrl-sh) tagged with GFP. […] Both the cilia^HCA and mTORC1^HCA were optimized as imaged-based assays, where cilia and mTORC1 activity was monitored by immunofluorescent staining of ACIII to identify cilia and pS6 as a proxy of mTORC1 activation (FIGS. 8C-F). Neurons were transduced in culture at day in vitro (DIV) 1, and cilia and mTORC1 activity were assessed in a time course experiment at DIV2, 5, 7, 13, and 20 (FIG. 2A). […] Reduced ciliation was validated by manual imaging and quantification of LV-infected neurons co-labeled with ACIII/centrin (FIGS. 8G-H). No changes in size or ACIII intensity were detected in the remaining cilia of the Tsc2-sh neurons (FIGS. 8I-J). […]

C=CCNC1=C2C[C@@H](C)C[C@H](OC)[C@H](O)[C@@H](C)/C=C(\C)[C@H](OC(N)=O)[C@@H](OC)C=C/C=C(\C)C(=O)NC(=CC1=O)C2=O [17-AGG, 3 S,5S,6R,7S,8E,10R,11S,12E,14E)-21-(allylamino)-6-hydroxy-5,11-dimethoxy-3,7,9,15-tetramethyl-16,20,22-trioxo-17-azabicyclo[16.3.1]docosa-8,12,14,18,21-pentaen-10-yl] carbamate]
IGF-IRβ levels [1]: reduced
ciliation [2]: did not increase
